This is an account of results in US9308194B2, “Indanyloxyphenylcyclopropanecarboxylic acids” (Boehringer Ingelheim International GmbH, priority 2013, dated 2016).

As a reminder, the EC50 is the concentration that produces a half-maximal response. High values mean a less potent agent, low ones a more potent agent.

Chain of human GPR40 receptor (O14842 whole entry): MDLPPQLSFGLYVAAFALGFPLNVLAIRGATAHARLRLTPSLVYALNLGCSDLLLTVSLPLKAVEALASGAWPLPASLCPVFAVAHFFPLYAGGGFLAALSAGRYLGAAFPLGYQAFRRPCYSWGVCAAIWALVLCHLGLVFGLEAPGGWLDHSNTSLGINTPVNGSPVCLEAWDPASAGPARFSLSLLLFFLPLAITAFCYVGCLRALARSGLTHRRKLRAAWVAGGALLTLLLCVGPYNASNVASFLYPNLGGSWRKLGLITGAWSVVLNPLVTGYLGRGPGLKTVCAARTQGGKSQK

This test concerns the target human GPR40 receptor (Homo sapiens, UniProt O14842). Nature of the test: IP1 accumulation measurements using the IPOne assay system in 1321N1 cells stably expressing human GPR40 receptor. It is filed as cell-based. To be noted: 1321N1 cells expressing human GPR40, 1 hour stimulation at 37° C., Table 2. Here is the method:
(§1) IP1 is assayed according to the Manufacturer's description (Cisbio Bioassays, France). In brief, the assay is started by substitution of the culture medium by stimulation buffer (Hepes 10 mM, CaCl2 1 mM, MgCl2 0.5 mM, KCl 4.2 mM, NaCl 146 mM and glucose 5.5 mM, pH 7.4) without LiCl or with […]. Cells are stimulated for 1 hour at 37° C., 5 or 10% CO2 by addition of the compounds that are diluted in stimulation buffer containing LiCl yielding a final LiCl concentration of 50 mM. Assays are stopped by adding HTRF-conjugates (IP1-d2 and Anti-IP1 cryptate Tb) and lysis buffer, provided by the manufacturer. After an incubation time of 1 hour at room temperature plates are measured using an EnVision™, Perkin Elmer. The obtained fluorescence ratios at […] are then used to calculate the pEC50 values using GraphPad Prism 5 (Graphpad Software Inc, USA) or Assay Explorer 3.3 Software (Accelrys, Inc.) by interpolation using an IP1 reference curve and subsequent sigmoidal curve fitting allowing for a variable hill slope.
as §1, with “IP1 accumulation measurements using the IPOne assay system—1321N1 cells stably expressing human GPR40 receptor (Euroscreen, Belgium) are seeded 24 h before the assay in black clear-bottom collagen-coated or white 384-well plates in culture medium containing 10% FCS, 1% Na-Pyruvate and 400 μg/mL G418. IP1 is” for “IP1 is”
Consider `O=C(O)[C@H]1C[C@@H]1c1ccc(O[C@@H]2CCc3c(Oc4ccc(OCc5ccccc5)cc4)ccc(F)c32)cc1` [Example 1], for which the EC50 came to 6 nM.

In turn, `O=C(O)[C@H]1C[C@@H]1c1ccc(O[C@@H]2CCc3c(Oc4ccc(O)cc4)ccc(F)c32)cc1` [Example 2] came in with an EC50 of 6 nM.

`O=C(O)[C@H]1C[C@@H]1c1ccc(O[C@@H]2CCc3c(Oc4ccc(OCc5ccccc5)c(F)c4)ccc(F)c32)cc1` [Example 3]: the 50% effective concentration (EC50) is 5 nM.

The compound `CC(C)(O)CCOc1ccc(Oc2ccc(F)c3c2CC[C@H]3Oc2ccc([C@H]3C[C@@H]3C(=O)O)cc2)cc1` [Example 4] displayed an EC50 of 5 nM.

As for `O=C(O)[C@H]1C[C@@H]1c1ccc(O[C@@H]2CCc3c(Oc4ccc(OCC5(O)CCOCC5)cc4)ccc(F)c32)cc1` [Example 5], it took 7 nM to reach a half-maximal effect (EC50).

For `O=C(O)[C@H]1C[C@@H]1c1ccc(O[C@@H]2CCc3c(Oc4ccc(OC5CCOCC5)cc4)ccc(F)c32)cc1` [Example 6], it took 2 nM to reach a half-maximal effect (EC50).

`CS(=O)(=O)CCCOc1ccc(Oc2ccc(F)c3c2CC[C@H]3Oc2ccc([C@H]3C[C@@H]3C(=O)O)cc2)cc1` [Example 7] came in with an EC50 of 4 nM. Compared with the last compound, the EC50 is about 2-fold higher.

In the case of `COCCOc1ccc(Oc2ccc(F)c3c2CC[C@H]3Oc2ccc([C@H]3C[C@@H]3C(=O)O)cc2)cc1` [Example 8], the 50% effective concentration (EC50) was 5 nM. The EC50 values of the last two compounds are within 1.5-fold of each other.

Take `CC(C)(O)COc1ccc(Oc2ccc(F)c3c2CC[C@H]3Oc2ccc([C@H]3C[C@@H]3C(=O)O)cc2)cc1` [Example 9]: the concentration giving a half-maximal response (EC50) was determined as 5 nM.

For the compound `O=C(O)[C@H]1C[C@@H]1c1ccc(O[C@@H]2CCc3c(Oc4ccc(OCCO)cc4)ccc(F)c32)cc1` [Example 10], the EC50 came to 7 nM.

Compound `CC(C)(O)CCOc1ccc(Oc2ccc(F)c3c2CC[C@H]3Oc2ccc([C@H]3C[C@@H]3C(=O)O)cc2)cc1F` [Example 11] gave an EC50 of 3 nM.

`O=C(O)[C@H]1C[C@@H]1c1ccc(O[C@@H]2CCc3c(Oc4ccc(OC5CCOCC5)c(F)c4)ccc(F)c32)cc1` [Example 12] yielded an EC50 of 4 nM.

For `COCCOc1ccc(Oc2ccc(F)c3c2CC[C@H]3Oc2ccc([C@H]3C[C@@H]3C(=O)O)cc2)cc1F` [Example 13], the response was half-maximal at 8 nM (EC50).

`O=C(O)[C@H]1C[C@@H]1c1ccc(O[C@@H]2CCc3c(Oc4ccc(OCCN5CCOCC5)cc4)ccc(F)c32)cc1` [Example 14] yielded an EC50 of 3 nM.

On to `CS(=O)(=O)CCCOc1ccc(Oc2ccc(F)c3c2CC[C@H]3Oc2ccc([C@H]3C[C@@H]3C(=O)O)cc2)cc1F` [Example 15], for which the concentration for a half-maximal effect (EC50) is 8 nM.

In turn, `O=C(O)c1ccc(Oc2ccc(F)c3c2CC[C@H]3Oc2ccc([C@H]3C[C@@H]3C(=O)O)cc2)cc1` [Example 16] returned a concentration for a half-maximal effect (EC50) of 92 nM. Compared with the last compound, the EC50 is about 12-fold higher.

For the compound `CNC(=O)c1ccc(Oc2ccc(F)c3c2CC[C@H]3Oc2ccc([C@H]3C[C@@H]3C(=O)O)cc2)cc1` [Example 17], the EC50 turned out to be 9 nM. This EC50 is about 10-fold lower than that of the compound before.

Compound `O=C(NCC1CC1)c1ccc(Oc2ccc(F)c3c2CC[C@H]3Oc2ccc([C@H]3C[C@@H]3C(=O)O)cc2)cc1` [Example 18] showed an EC50 of 6 nM.

Turning to `CN(CCO)C(=O)c1ccc(Oc2ccc(F)c3c2CC[C@H]3Oc2ccc([C@H]3C[C@@H]3C(=O)O)cc2)cc1` [Example 19], it took 48 nM to reach a half-maximal effect (EC50).

Turning to `CN(C)C(=O)c1ccc(Oc2ccc(F)c3c2CC[C@H]3Oc2ccc([C@H]3C[C@@H]3C(=O)O)cc2)cc1` [Example 20], the EC50 amounted to 11 nM.

`O=C(NC1CCOCC1)c1ccc(Oc2ccc(F)c3c2CC[C@H]3Oc2ccc([C@H]3C[C@@H]3C(=O)O)cc2)cc1` [Example 21] displayed an EC50 of 3 nM.

In turn, `O=C(O)[C@H]1C[C@@H]1c1ccc(O[C@@H]2CCc3c(Oc4ccc(C(=O)N5CCOCC5)cc4)ccc(F)c32)cc1` [Example 22] yielded an EC50 of 27 nM.

Compound `CCNC(=O)c1ccc(Oc2ccc(F)c3c2CC[C@H]3Oc2ccc([C@H]3C[C@@H]3C(=O)O)cc2)cc1` [Example 23] gave a 50% effective concentration (EC50) of 12 nM.

In turn, `N#Cc1ccc(Oc2ccc(F)c3c2CC[C@H]3Oc2ccc([C@H]3C[C@@H]3C(=O)O)cc2)cc1` [Example 24] yielded an EC50 of 2 nM.

In turn, `Cc1cc(C#N)ccc1Oc1ccc(F)c2c1CC[C@H]2Oc1ccc([C@H]2C[C@@H]2C(=O)O)cc1` [Example 25] registered a concentration for a half-maximal effect (EC50) of 2 nM.

`N#Cc1ccc(Oc2ccc(F)c3c2CC[C@H]3Oc2ccc([C@H]3C[C@@H]3C(=O)O)cc2)c(F)c1` [Example 26] registered a concentration for a half-maximal effect (EC50) of 19 nM. This EC50 lies about 9.5-fold higher than the previous one.

Compound `COc1cc(Oc2ccc(F)c3c2CC[C@H]3Oc2ccc([C@H]3C[C@@H]3C(=O)O)cc2)ccc1C#N` [Example 27] registered an EC50 of 2 nM.

With `N#Cc1ccc(Oc2c(F)cc(F)c3c2CC[C@H]3Oc2ccc([C@H]3C[C@@H]3C(=O)O)cc2)cc1` [Example 28], the concentration for a half-maximal effect (EC50) stood at 1 nM.

In the case of `Cn1nnc(-c2ccc(Oc3ccc(F)c4c3CC[C@H]4Oc3ccc([C@H]4C[C@@H]4C(=O)O)cc3)cc2)n1` [Example 29], the 50% effective concentration (EC50) came out at 3 nM.

In turn, `CC(C)c1ccn(-c2ccc(Oc3ccc(F)c4c3CC[C@H]4Oc3ccc([C@H]4C[C@@H]4C(=O)O)cc3)cc2)n1` [Example 30] displayed an EC50 of 8 nM.

On to `Cc1cc(Oc2ccc(F)c3c2CC[C@H]3Oc2ccc([C@H]3C[C@@H]3C(=O)O)cc2)cc(C)c1OCCC(C)(C)O` [Example 31], for which the midpoint of the response, the EC50, lay at 9 nM.

In turn, `Cc1noc(-c2ccc(Oc3ccc(F)c4c3CC[C@H]4Oc3ccc([C@H]4C[C@@H]4C(=O)O)cc3)cc2)n1` [Example 32] showed a 50% effective concentration (EC50) of 4 nM.

With `Cc1nc(-c2ccc(Oc3ccc(F)c4c3CC[C@H]4Oc3ccc([C@H]4C[C@@H]4C(=O)O)cc3)cc2)nn1C` [Example 33], a half-maximal effect (EC50) was put at 5 nM.

For the compound `CC(C)(O)CNC(=O)c1ccc(Oc2ccc(F)c3c2CC[C@H]3Oc2ccc([C@H]3C[C@@H]3C(=O)O)cc2)cc1` [Example 34], the midpoint of the response, the EC50, lay at 16 nM.

For the compound `Cc1nc(-c2ccc(Oc3ccc(F)c4c3CC[C@H]4Oc3ccc([C@H]4C[C@@H]4C(=O)O)cc3)cc2)no1` [Example 35], the EC50 was 3 nM.

For the compound `Cn1ncc2ccc(Oc3ccc(F)c4c3CC[C@H]4Oc3ccc([C@H]4C[C@@H]4C(=O)O)cc3)cc21` [Example 36], the midpoint of the response, the EC50, lay at 2 nM.

As to `Cc1nc2ccc(Oc3ccc(F)c4c3CC[C@H]4Oc3ccc([C@H]4C[C@@H]4C(=O)O)cc3)cc2s1` [Example 37], the concentration for a half-maximal effect (EC50) was 2 nM.

`CS(=O)(=O)c1ccc(Oc2ccc(F)c3c2CC[C@H]3Oc2ccc([C@H]3C[C@@H]3C(=O)O)cc2)cc1` [Example 38] came in with a 50% effective concentration (EC50) of 27 nM.

On to `Cc1ccc2cc(Oc3ccc(F)c4c3CC[C@H]4Oc3ccc([C@H]4C[C@@H]4C(=O)O)cc3)ccc2n1` [Example 39], for which the concentration for a half-maximal effect (EC50) stood at 6 nM.

Compound `N#Cc1ccc2c(c1Cc1ccc(Cl)nc1)CC[C@H]2Oc1ccc([C@H]2C[C@@H]2C(=O)O)cc1` [Example 40, (1S,2S)-2-{4-[(R)-4-(6-Chloro-pyridin-3-ylmethyl)-5-cyano-indan-1-yloxy]-phenyl}-cyclopropanecarboxylic acid] yielded a half-maximal effective concentration (EC50) of 45 nM.

`Cc1cc(C#N)cc(C)c1S(=O)(=O)c1cccc2c1CC[C@H]2Oc1ccc([C@H]2C[C@@H]2C(=O)O)cc1` [Example 41] registered an EC50 of 12 nM.

`Cc1cccc(C)c1S(=O)(=O)c1cccc2c1CC[C@H]2Oc1ccc([C@H]2C[C@@H]2C(=O)O)cc1` [Example 42]: a half-maximal response (EC50) required 4 nM. Compared with the last compound, the EC50 is about 3-fold lower.

In the case of `O=C(O)C1CC1c1ccc(O[C@@H]2CCc3c2cccc3S(=O)(=O)c2ccccc2)cc1` (stereo partly shown) [Example 43], the EC50 came out at 37 nM.

Regarding `O=C(O)C1CC1c1ccc(O[C@@H]2CCc3c2cccc3[S+]([O-])c2ccccc2)cc1` (stereo partly shown) [Example 44], it took 197 nM to reach a half-maximal effect (EC50).

As to `O=C(O)[C@H]1C[C@@H]1c1ccc(O[C@@H]2CCc3c(Oc4ccccc4)ccc(F)c32)cc1` [Example 45, (1S,2S)-2-[4-((R)-7-Fluoro-4-phenoxy-indan-1-yloxy)-phenyl]-cyclopropanecarboxylic acid], the EC50 was 2 nM.

As to `COc1ccc(Cc2c(C#N)ccc3c2CC[C@H]3Oc2ccc([C@H]3C[C@@H]3C(=O)O)cc2)cn1` [Example 46, (1S,2S)-2-{4-[(R)-5-Cyano-4-(6-methoxy-pyridin-3-ylmethyl)-indan-1-yloxy]-phenyl}-cyclopropanecarboxylic acid], the 50% effective concentration (EC50) was found to be 8 nM. This EC50 lies about 4-fold higher than the previous one.
